Assay results from EP0351720B1, “Use of substituted 3,4-dihydro-2H-benzopyrans as medicaments against obstructive disorders of the lung” (HOECHST AKTIENGESELLSCHAFT, priority 1988, dated 1990).

System: Histamin-induzierte Bronchokonstriktion
Assay: Influence on histamine-induced bronchoconstriction in anaesthetised, ventilated guinea pigs (modified Konzett-Rössler method), test substance given as aerosol
Assay type: in vivo, Meerschweinchen
Conditions: for % Hemmung der Histamin-induzierten Bronchokonstriktion: n = 6, change vs control
Protocol: a) Beeinflussung von Atemwegsstörungen Einfluß auf die histamin-induzierte Bronchokonstriktion am Meerschweinchen
Albino-Meerschweinchen beiderlei Geschlechts mit einem Gewicht zwischen 450 und 550 g wurden mit 60 mg/kg Pentobarbital i.p. narkotisiert. Nach Tracheotomie wurden sie mit einer Starlingpumpe (Fa. Braun, Melsungen) beatmet. Das Atemvolumen wurde so gewählt, daß die Lungen ausgiebig belüftet wurden. Der Beatmungsdruck wurde mit Hilfe einer Wassersäule auf 80 mm H₂O eingestellt (Rosenthal und Dervinis). Die Atemfrequenz betrug 30 Atemzüge/min. Ein Überschuß an verfügbarer Atemluft kann durch einen Nebenweg im Einatemschlauch zu einer als Wasser-Überdruckventil geschalteten Waschflasche gelangen. Wird von der Starling-Pumpe durch den Einatemschlauch Luft in die Lunge geblasen, so füllt sich diese so lange, bis der Druck in dem System den durch die Höhe der Wassersäule eingestellten Wert (80 mm H₂O) erreicht hat. Die noch weiter zuströmende Luft fließt durch das Überdruckventil in die Waschflasche. Dieser Luftüberschuß, der nach Überschreiten des eingestellten Drucks in die Flasche entweicht, wird mit Hilfe eines Pistonrekorders gemessen und gilt als Maß für eine Veränderung des Atemwiderstands. Die Messung erfolgte in einer von der ursprünglichen Konzett-Rössler-Methode leicht modifizierten Weise, indem der Pistonrekorder durch ein Staudruckrohr nach Fleisch (Typ 0000) ersetzt wurde. Der auftretende Druckunterschled wurde mit einem Differenzdruckwandler Statham PM 97 TC erfaßt. Zur Aufzeichnung der Meßwerte diente ein Mehrfachkanalschreiber der Fa. Hellige.
Die Testsubstanzen werden als Aerosol mit Hilfe eines Ultraschallverneblers (Monaghan M 650) verabreicht. Die Verneblerkammer wird in den Einatemschlauch der Atempumpe zwischengeschaltet und den Tieren gestattet, das Aerosol 1 min lang einzuatmen. Das zu vernebelnde Volumen beträgt 0,02 ml/min.
Vernebelt wird eine physiologische Kochsalzlösung, der die zu prüfende Substanz in Form einer Lösung in Propandiol zugesetzt wird.
In einem Kontrollversuch wird sichergestellt, daß das Lösemittel Propandiol/physiologische Kochsalzlösung keine Eigenwirkung besitzt.
Eine Bronchokonstriktion wird durch Gaben von Histamindihydrochlorid (6 - 12 »g/kg i.v.) induziert. Die Injektion erfolgt durch einen in die V. jugularis eingeführten Katheter. Die Dosierung wird so gewählt, daß ein respiratorischer "Überfluß" von 60 % des angebotenen Atemvolumens während der Histamin-induzierten Bronchokonstriktion auftritt. Die Histamingaben erfolgen in 5-Minuten-Intervallen. Nach mindestens 3 gut reproduzierbaren Bronchokonstriktionen werden die Testsubstanzen als Aerosol 1 min lang verabreicht und nach einer Einwirkungszeit von 2 min erneut die Bronchokonstriktion induziert und in 5-Minuten-Intervallen wiederholt. […]

CC1(C)Oc2ccc(S(=O)(=O)c3ccccc3)cc2C(N2CCCC2=O)C1O (single isomer, unassigned; (+)) [Beispiel 5a, (+)-3,4-Dihydro-2,2-dimethyl-6-phenylsulfonyl-4-(2-oxo-1-pyrrolidinyl)-2H-benzo[b]pyran-3-ol]
ED50 (Cavia porcellus, inhaled or nasal, aerosol, determined by linear regression of the % inhibition results, read-out: ID₅₀): 4.39 µg/kg
% Hemmung der Histamin-induzierten Bronchokonstriktion (Dosis 1 »g/kg as aerosol for 1 min): 14 ± 4%
% Hemmung der Histamin-induzierten Bronchokonstriktion (Dosis 3 »g/kg as aerosol for 1 min): 35 ± 4%
% Hemmung der Histamin-induzierten Bronchokonstriktion (Dosis 10 »g/kg as aerosol for 1 min): 77 ± 7%
